# Assay results reported in publication PMC7251097, “Aspartate/asparagine-β-hydroxylase: a high-throughput mass spectrometric assay for discovery of small molecule inhibitors” (Scientific Reports, 2020).
# Structures can show the parent of a compound that is named as a salt. Where two headings read alike, the source gives them in different places.
# Target: T1, His6-AspH315–758 (human aspartate/asparagine-β-hydroxylase, AspH) (Homo sapiens, UniProt Q12797)
# T1 construct: N-Terminally His6-tagged human AspH315–758 (His6-AspH315–758) was produced in E. coli BL21 (DE3) cells; made in house; host or cells: E. coli BL21 (DE3), pET-28a(+) vector
# T1 sequence (Q12797 315-758): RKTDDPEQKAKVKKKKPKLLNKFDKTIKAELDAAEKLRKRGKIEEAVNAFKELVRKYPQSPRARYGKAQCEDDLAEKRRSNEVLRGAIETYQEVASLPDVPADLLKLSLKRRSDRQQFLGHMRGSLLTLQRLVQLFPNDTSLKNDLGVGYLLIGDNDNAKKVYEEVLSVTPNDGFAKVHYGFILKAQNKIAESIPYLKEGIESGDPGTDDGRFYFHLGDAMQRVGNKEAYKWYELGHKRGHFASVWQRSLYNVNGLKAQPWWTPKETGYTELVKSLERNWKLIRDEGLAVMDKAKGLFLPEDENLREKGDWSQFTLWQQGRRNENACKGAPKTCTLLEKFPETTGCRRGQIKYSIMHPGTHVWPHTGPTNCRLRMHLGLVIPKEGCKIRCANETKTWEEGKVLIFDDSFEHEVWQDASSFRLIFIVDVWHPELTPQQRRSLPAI
# Experiment: SPE-MS AspH inhibition assay (LOPAC screen at fixed 20 μM and IC50 dose-response), hydroxylation of cyclic peptide hFX-CP101–119
# Type: biochemical
# [1] = LOPAC compound at fixed 20 uM, plate 1, normalised to DMSO and 2,4-PDCA controls
# [2] = LOPAC compound at fixed 20 uM, substrate conversion, plate 1
# [3] = LOPAC compound at 20uM, plate 3, conversion of substrate peptide
# [4] = LOPAC Plate 4, compound at 20 uM, substrate conversion
# [5] = LOPAC compound at 20uM, plate 2, conversion of substrate peptide
# [6] = LOPAC compound at 20uM, plate 2, normalised to DMSO and 2,4-PDCA controls
# [7] = plate 5 (Pfitzer), test compounds at fixed 20 μM
# [8] = plate 5 (Pfitzer), test compounds at fixed 20 μM, mean conversion DMSO 32.88
# [9] = LOPAC Plate 4, compound at 20 uM
compound,measurement,setting,value
"Clc1ccc(N/N=C(\c2ccccc2)c2ccccn2)nc1 [JIB-04, reference compound]",IC50,"50 nM His6-AspH315–758, 1.0 μM hFX-CP101–119, 3 μM 2OG, 2 μM Fe(II), 50 mM HEPES pH 7.5, 20 °C, mean ± SD, n = 2 (2,4-PDCA n = 10), read-out: IC50",4.24 ± 0.3 µM
CN1CCc2cccc(Cl)c2CC1 [SKF 86466],% conversion,,40.52%
same,inhibition at 20 µM,,-11.9%
CC(N)=O [Acetamide],Plate 1 (% inhibition),[1],0.92%
same,Plate 1 (% conversion),[2],35.56%
Cl.OC1CCCCC1N1CCC(c2ccccc2)CC1 (racemic) [(±)-Vesamicol hydrochloride],% conversion,,40.91%
same,% inhibition,20 µM,-13.00%
CC1=C(/C=C/C(C)=C/C=C/C(C)=C/C=C/C=C(C)/C=C/C=C(C)/C=C/C2=C(C)C(=O)[C@@H](O)CC2(C)C)C(C)(C)C[C@H](O)C1=O [Astaxanthin],Plate 1 (% inhibition),[1],-2.40%
same,Plate 1 (% conversion),[2],36.68%
CCOC(=O)[C@H](CCc1ccccc1)N[C@@H](C)C(=O)N1[C@H](C(=O)O)C[C@H]2CCCC[C@@H]21 [Trandolapril],Plate 3 (% conversion),[3],36.50%
Cc1ccc(S(=O)(=O)/C=C/C#N)cc1 [Bay 11-7082],% conversion,[4],24.61%
O=C1CCC(c2ccc(-n3ccnc3)cc2)=NN1 [Imazodan],Plate 2 (% conversion),[5],38.21%
same,inhibition at 20 µM,"LOPAC compound at 20uM, plate 2, normalised to DMSO and 2,4-PDCA controls, read-out: Plate 2 (% inhibition)",-6.74%
CC(Cc1ccc(O)cc1)NCC(O)c1cc(O)cc(O)c1 (stereo not drawn) [Fenoterol hydrobromide],Plate 2 (% conversion),,38.93%
same,inhibition at 20 µM,read-out: Plate 2 (% inhibition),-8.89%
CN(C(=O)CCCOc1ccc2[nH]c(=O)ccc2c1)C1CCCCC1 [Cilostamide],Plate 1 (% inhibition),[1],-8.28%
same,Plate 1 (% conversion),[2],38.65%
Cl.c1ccc2c(N3CCNCC3)cccc2c1 [1-(1-Naphthyl)piperazine hydrochloride],% conversion,,30.74%
C[C@](N)(Cc1ccc(O)cc1)C(=O)O [L-alpha-Methyl-p-tyrosine],Plate 3 (% conversion),,32.12%
Nc1ncnc2c1ncn2[C@@H]1O[C@H](COP(=O)(O)OP(=O)(O)OP(=O)(O)OP(=O)(O)OC[C@H]2O[C@@H](n3cnc4c(N)ncnc43)[C@H](O)[C@@H]2O)[C@@H](O)[C@H]1O,Plate 2 (% conversion),[5],27.58%
same,Plate 2 (% inhibition),[6],25.01%
CC(C)COCC(CN(Cc1ccccc1)c1ccccc1)N1CCCC1 (stereo not drawn) [Bepridil hydrochloride],Plate 1 (% inhibition),[1],94.47%
same,Plate 1 (% conversion),[2],4.14%
COc1cc2c(cc1OC)-c1c/c(=N\c3c(C)cc(C)cc3C)n(C)c(=O)n1CC2 [Trequinsin hydrochloride],% conversion,[4],28.50%
Cc1ccc(O)c(N=Nc2ccccc2)n1 [SIB 1757],% conversion,[4],30.83%
CN(CCC(Oc1ccc(C(=O)c2nccs2)cc1)c1ccc(Cl)cc1)CC(=O)O (stereo not drawn) [CP-802079],Plate 5 (% conversion),,32.57%
same,Plate 5 (% inhibition),,11.01%
NCC(CC(=O)O)c1ccc(Cl)cc1 (racemic) [(±)-Baclofen],Plate 1 (% inhibition),[1],-1.99%
same,Plate 1 (% conversion),[2],36.54%
Cc1cc(C(C)(C)C)cc(C)c1CC1=NCCN1 [Xylometazoline hydrochloride],% conversion,,31.88%
CN(C)CC[C@@H](c1ccc(Br)cc1)c1ccccn1 [(+)-Brompheniramine maleate],Plate 1 (% inhibition),[1],1.01%
same,Plate 1 (% conversion),[2],35.53%
Oc1ccccc1O [Pyrocatechol],Plate 1 (% conversion),,10.12%
same,Plate 1 (% inhibition),[1],76.68%
Clc1ccccc1C(c1ccccc1)(c1ccccc1)n1ccnc1 [Clotrimazole],Plate 1 (% inhibition),[1],-28.43%
same,Plate 1 (% conversion),[2],45.42%
CCCCN(CC)c1nc(C)nc2c1c(C)cn2-c1c(C)cc(C)cc1C.Cl [CP-154526 hydrochloride],Plate 3 (% conversion),[3],39.02%
OC[C@H]1O[C@H]([S-])[C@H](O)[C@@H](O)[C@@H]1O.[Au+] [Aurothioglucose],Plate 3 (% conversion),,23.41%
"C#C[C@]1(O)CC[C@H]2[C@@H]3CCC4=Cc5nc6nc7ccccc7n6cc5C[C@]4(C)[C@H]3CC[C@@]21C [WIN 62,577]",% conversion,,37.03%
same,% inhibition,20 µM,-1.63%
"Br.C=CCN1CCc2cc(O)c(O)cc2C(c2ccccc2)C1 (racemic) [(±)-SKF 38393, N-allyl-, hydrobromide]",% conversion,,11.46%
same,% inhibition,20 µM,73.28%
CCN(CC)CCOc1ccc(Nc2ncc3cc(-c4c(Cl)cccc4Cl)c(=O)n(C)c3n2)cc1.O [PD-166285 hydrate],% conversion,,50.97%
same,% inhibition,20 µM,-42.48%
CN1CCc2cccc3c2[C@H]1Cc1ccc(O)c(O)c1-3 [Apomorphine hydrochloride hemihydrate],Plate 1 (% inhibition),[1],80.27%
same,Plate 1 (% conversion),[2],8.92%
CC(C)c1cc(C(C)C)c(CC(=O)NS(=O)(=O)Oc2c(C(C)C)cccc2C(C)C)c(C(C)C)c1 [Avasimibe],Plate 5 (% inhibition),[7],73.14%
same,Plate 5 (% conversion),[8],11.42%
Cc1ncsc1CCCl.Cl [Chlormethiazole hydrochloride],Plate 1 (% conversion),,33.94%
same,Plate 1 (% inhibition),,5.75%
Ro 8-4304,% inhibition,[9],-13.60%
same,% conversion,[4],41.11%
CS(=O)(=O)O.O.O=C(OC1C[C@@H]2CC3C[C@H](C1)N2CC3=O)c1c[nH]c2ccccc12 (stereo partly drawn) [Dolasetron mesylate hydrate],% inhibition,[9],-4.53%
same,% conversion,[4],38.02%
COC(=O)C1=C(C)NC(C)=C([N+](=O)[O-])C1c1ccccc1C(F)(F)F (racemic) [(±)-Bay K 8644],Plate 1 (% inhibition),[1],-22.02%
same,Plate 1 (% conversion),[2],43.27%
C=C(C)[C@H]1Cc2c(ccc3c2O[C@@H]2COc4cc(OC)c(OC)cc4[C@@H]2C3=O)O1 [Rotenone],% conversion,,46.53%
CC(C)C[C@H](NC(=O)[C@@H](O)[C@H](N)Cc1ccccc1)C(=O)O [Bestatin hydrochloride],Plate 1 (% inhibition),[1],-4.72%
same,Plate 1 (% conversion),[2],37.46%
COc1ccc(/C=C/C(=O)Nc2ccccc2C(=O)O)cc1OC [Tranilast],% conversion,[4],35.26%
CC#CCOC(=O)c1c(C)nc2sc3c(c2c1N)CCC(O)C3 (stereo not drawn) [SB 205384],% conversion,,39.48%
NC(CP(=O)(O)O)C(=O)O (racemic) [(±)-2-Amino-3-phosphonopropionic acid],Plate 1 (% conversion),,38.27%
same,Plate 1 (% inhibition),,-7.14%
C[N+](C)(C)CC=O [Betaine aldehyde chloride],Plate 1 (% inhibition),[1],-3.10%
same,Plate 1 (% conversion),[2],36.91%
Cn1cnc2c1c(=O)[nH]c(=O)n2C [Theobromine],% conversion,[4],26.15%
CC[C@]1(O)C[C@@H]2CN(CCc3c([nH]c4ccccc34)[C@@](C(=O)OC)(c3cc4c(cc3OC)N(C)[C@H]3[C@@](O)(C(=O)OC)[C@H](OC(C)=O)[C@]5(CC)C=CCN6CC[C@]43[C@@H]65)C2)C1.O=S(=O)(O)O [Vinblastine sulfate salt],% conversion,,54.00%
same,% inhibition,20 µM,-51.36%
"O=C(O)Cc1ccc(O)c(O)c1 [3,4-Dihydroxyphenylacetic acid, reference compound]",inhibition at 20 µM,"AspH activity, fixed compound concentration 20 μM, initial LOPAC screen, 0.5%v/v DMSO, read-out: Inhibition at 20 µM [%]",98.6%
Cc1nc2c(OCc3ccccc3)cccn2c1CC#N [SCH-28080],Plate 2 (% conversion),[5],38.71%
same,Plate 2 (% inhibition),[6],-8.22%
"CC(N)Cc1cccc(C(F)(F)F)c1.Cl (single isomer, unassigned; (+)) [(+)-Norfenfluramine hydrochloride]",% conversion,,26.61%
Clc1ccc(N2CCN(Cc3cc4ccccn4n3)CC2)cc1 [FAUC 213],% inhibition,[9],-8.79%
same,% conversion,[4],39.47%
CC(C)NP(=O)(NC(C)C)OP(=O)(NC(C)C)NC(C)C [Tetraisopropyl pyrophosphoramide],% conversion,,27.56%
COC[C@H]1OC(=O)c2coc3c2[C@@]1(C)C1=C(C3=O)[C@@H]2CCC(=O)[C@@]2(C)C[C@H]1OC(C)=O [Wortmannin from Penicillium funiculosum],% conversion,,29.28%
CCC(C)N(C)C(=O)c1cc2ccccc2c(-c2ccccc2Cl)n1 (stereo not drawn) [PK 11195],Plate 1 (% inhibition),[1],-10.48%
same,Plate 1 (% conversion),[2],39.39%
Cn1c(=O)c(-c2c(Cl)cccc2Cl)cc2cnc(Nc3ccc(N4CCOCC4)cc3)nc21 [PD173952],% inhibition,[9],-8.20%
same,% conversion,[4],39.27%
same,Plate 5 (% inhibition),[7],58.03%
same,Plate 5 (% conversion),[8],16.57%
Nc1nc2c(cnn2CCc2ccccc2)c2nc(-c3ccco3)nn12 [SCH 58261],% conversion,[4],31.57%
O=P1(N(CCCl)CCCl)NCCCO1 (stereo not drawn) [Cyclophosphamide monohydrate],Plate 1 (% conversion),,38.48%
same,Plate 1 (% inhibition),,-7.77%
O=C(O)c1cccnc1Nc1cccc(C(F)(F)F)c1 [Niflumic acid],Plate 3 (% conversion),[3],32.98%
COC(=O)C(N)Cc1ccc(Cl)cc1.Cl (racemic),Plate 1 (% inhibition),[1],1.48%
same,Plate 1 (% conversion),[2],35.38%
COc1cc(SC)ccc1C(=O)N1CCC(Cc2ccccc2)CC1 [JX401],Plate 2 (% conversion),[5],45.70%
same,Plate 2 (% inhibition),[6],-29.09%
